Data on one molecule can be found in patent publication US9045490B2, “Use of parthenolide derivatives as antileukemic and cytotoxic agents” (University of Kentucky, priority 2003, dated 2015).

Holding throughout (format): cell-based
Test [1] relates to human monocyte cell line THP-1. As to the kind of experiment: cDNA array analysis of inflammation genes. The protocol:
Total cellular RNA was extracted from the human monocyte cell line THP-1 under three conditions 2 hours after Time 0:
1) Control was added at Time 0 […]
RNA was extracted using RNeasy Min Kit (Qiagen, USA) according to the manufacturer's instructions. The Human Drug Targets for Inflammation and Immunomodulation Q series GE array kit (HS-048-12) was obtained from SuperArray Bioscience Corporation (Frederick, Md.). The kit determines expression of 96 genes that are associated with inflammation. RNA from respective samples was used as a template to generate biotin labeled cDNA probes using GEArray Ampolabelling RT kit (SuperArray, Bioscience Corp., USA). The cDNA probes corresponding to the mRNA population were then denatured and hybridization was carried out in GEHyb solution to nylon membranes spotted with gene specific fragments. Membranes were then washed in 2×SSC, 1% SDS twice for 15 minutes each, followed by 0.1 SSC, 0.5% SDS twice for 15 minutes each. Chemiluminescence was used to visualize the expression levels of each transcript and the results were quantified with the GEArray Analyzer. The change in a given gene transcript was estimated by normalizing the signal intensities with the signal derived from PPIA and with minimum background subtraction.

For test [2], the system named is primary acute myelogenous leukemia (AML) cells. Description: Assay for antileukemic activity (Annexin V/7-AAD apoptosis analysis by flow cytometry). The note with it: 24 hours of culture. The protocol:
For apoptosis analysis, one million primary acute myelogenous leukemia (AML) cells were washed with cold PBS and resuspended in 200 microliters of Annexin binding buffer (10 mM HEPES/NaOH pH 7.4; 140 mM NaCl; 2.5 mM CaCl2). Annexin V-FITC (Pharmingen) and 0.25 mg/mL 7-AAD (7-aminoactinomycin D, Molecular Probes, CA) were added and the tubes were incubated at room temperature in the dark for 15 minutes. Cells were then diluted with 200 microliters of Annexin binding buffer and analyzed immediately by flow cytometry. Viable cells were identified as failing to label with Annexin V or 7-AAD. Cells beginning to die label with Annexin V, and as membrane integrity is lost, will also label with 7-AAD. […] Data are normalized to untreated control specimens. The data are in Table 1 for aminoparthenolide derivatives and Table 2 for the salts of some aminoparthenolides.
A general note: A flow cytometer gives signals particle by particle.

For test [3], the system named is breast cancer cell line 436. Description: Clonogenic assay. The conditions noted are these: 436 cells, 2 μm concentration (parthenolide: similar dosage ranges).
Where [4] appears, read: DMAPT (10 micromoles) pre-treatment for 2 hours then 1 hour treatment of LPS (10 nM).

For `C/C1=C\CC[C@@]2(C)O[C@@H]2[C@H]2OC(=O)[C@H](CN(C)C)[C@@H]2CC1` [DMAPT, 11S,11,13-Dihydro,13-dimethylaminoparthenolide], in test [1] (setting [4]), the “% Change of Genes: Intercellular Adhesion Molecule 1” value came to 58%; the “% Change of Genes: Nitric oxide synthase 2A (inducible)” value came to 48%; the “% Change of Genes: Tumor necrosis factor (ligand) superfamily, member 5” value was 23%. Further, the “transcription of tumor necrosis factor (TNF), relative to control” value in test [1] (pretreatment with DMAPT, then LPS) was 2 % of control. The Antileukemic activity in test [2] (5 μM) is 5 μM, 31%. Also, the Antileukemic activity in test [2] (10 μM, normalized to untreated control) was 10 μM, 90%. Besides, the Antileukemic activity in test [2] (20 μM) is given as 20 μM, 95%. In addition, in test [3], the inhibition of proliferation entry is given as “almost complete inhibition”.
